In PubChem BioAssay (NCI):
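Where inhibition never reached the appropriate level, the endpoint shown equals the highest concentration tested. Otherwise, values were interpolated linearly from a five-concentration, 48-hour dose response in 96-well plates. TGI: total growth inhibition.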

Legend:
Experiment in all cases: NCI anticancer screen, dose series, 48 h
[1] = test system: 786-0 renal
[2] = test system: BT-549 breast
[3] = test system: NCI-H23 lung
[4] = test system: SF-539 CNS
[5] = test system: OVCAR-8 ovarian
[6] = test system: UACC-62 melanoma
[7] = test system: HCT-116 colon
[8] = test system: OVCAR-3 ovarian
[9] = test system: SF-295 CNS
[10] = test system: KM12 colon
[11] = test system: HCC-2998 colon
[12] = test system: OVCAR-4 ovarian
[13] = test system: DU-145 prostate
[14] = test system: SNB-19 CNS
[15] = test system: RXF 393 renal
[16] = test system: NCI-H460 lung
[17] = test system: M14 melanoma
[18] = test system: SK-MEL-2 melanoma
[19] = test system: SW-620 colon

Compound	TGI [1] [µM]	TGI [2] [µM]	TGI [3] [µM]	TGI [4] [µM]	TGI [5] [µM]	TGI [6] [µM]	TGI [7] [µM]	TGI [8] [µM]	TGI [9] [µM]	TGI [10] [µM]	TGI [11] [µM]	TGI [12] [µM]	TGI [13] [µM]	TGI [14] [µM]	TGI [15] [µM]	TGI [16] [µM]	TGI [17] [µM]	TGI [18] [µM]	TGI [19] [µM]
CCOC(CCNCC(OCC)OCC)OCC	> 10	> 10	> 10	> 10	> 10	> 10	> 10	> 10	> 10	> 10	> 10	> 10	> 10	> 10	> 10	> 10	> 10	> 10	–
CCn1c(-c2cc(OC)cc(OC)c2)nc2c1C(=O)c1ccccc1C2=O	> 100	> 100	> 100	> 100	> 100	> 100	> 100	> 100	> 100	> 100	> 100	> 100	> 100	> 100	69.2	> 100	> 100	–	> 100
COc1nc(C(=O)NNC(=O)c2nc(OC)c3ccccc3c2-c2ccccc2)c(-c2ccccc2)c2ccccc12	> 100	> 100	> 100	–	> 100	> 100	> 100	> 100	> 100	> 100	> 100	> 100	> 100	> 100	> 100	–	> 100	> 100	> 100
N#CSC#Cc1ccc(C#CSC#N)cc1	33.5	32.4	35.5	43.3	42.6	32.5	38.7	39.7	43.4	36.8	34.3	36	28.3	47.7	35.7	38.9	–	38.8	44.1
COc1cc(-c2cc(=O)c3c(OC)c(OC)c(OC)c(OC)c3o2)c(OC)c(OC)c1OC	> 100	56.8	–	> 100	> 100	49.1	> 100	–	> 100	90.3	> 100	> 100	> 100	> 100	> 100	> 100	> 100	49.4	> 100
NC(=O)C(N)Cc1ccc(O)cn1 (stereo not given)	> 100	> 100	> 100	> 100	> 100	–	> 100	> 100	> 100	> 100	> 100	> 100	> 100	> 100	> 100	> 100	–	–	> 100
C=C(C)C(CC=C(C)C)CC12CC(CC=C(C)C)C(C)(C)C(CC=C(C)C)(C(=O)C(Cc3ccc(O)c(O)c3)=C1O)C2=O (stereo not given)	> 100	> 100	> 100	> 100	> 100	> 100	> 100	> 100	> 100	> 100	> 100	> 100	> 100	> 100	> 100	> 100	> 100	–	> 100
CC1(CCCO)CCCCCC(C)(CCCO)C1=O (stereo not given)	> 100	> 100	> 100	–	> 100	> 100	> 100	> 100	> 100	> 100	> 100	> 100	> 100	> 100	> 100	> 100	> 100	> 100	> 100
Cc1cc(N(CCC#N)CCC#N)ccc1/C(N=Nc1ccc([N+](=O)[O-])cc1)=N\NC(=O)c1cc(Cl)ccc1C(=O)c1ccccc1	52.7	> 100	38.6	–	26.1	36.9	23.6	> 100	> 100	47.8	30.3	95	56.8	> 100	57.9	43.2	> 100	57.8	82.2
C=CCNC1=C2C[C@@H](C)C[C@@H](OC)[C@H](OC(=O)CCCCN)[C@H](C)/C=C(\C)[C@@H](OC(N)=O)[C@H](OC)/C=C\C=C(/C)C(=O)NC(=CC1=O)C2=O	26.5	33.4	30	–	37.3	27.7	28	7.66	29.9	18	13.6	30.8	18.5	23.8	29.2	26	27	9.98	55.1
CC1CC(N)=Nc2ccccc2N1 (stereo not given)	> 100	> 100	> 100	–	> 100	> 100	> 100	> 100	> 100	> 100	> 100	> 100	> 100	> 100	> 100	–	> 100	> 100	> 100
C[C@@H]1C[C@H]2[C@@H]3CCC4=CC(=O)C=C[C@]4(C)[C@@]3(Cl)[C@@H](Cl)C[C@]2(C)[C@@]1(O)C(=O)COP(=O)(O)O	> 100	> 100	> 100	–	> 100	> 100	> 100	> 100	> 100	> 100	> 100	> 100	> 100	> 100	> 100	–	> 100	> 100	> 100
CCOC(=O)C1=CC(C)(C(=O)OCC)Nc2c(nc(OC)n(C)c2=O)N1 (stereo not given)	> 10	> 10	> 10	> 10	> 10	–	> 10	> 10	> 10	> 10	> 10	> 10	> 10	> 10	> 10	> 10	> 10	> 10	> 10
CC(=O)Nc1cc(C(=O)Nc2cc(C(=O)N3CC(CCl)c4c3cc(N)c3ccccc43)nn2C)nn1C (stereo not given)	0.332	0.883	0.0678	0.0549	0.308	0.0631	0.412	2.61	4.41	7.83	0.491	0.677	0.018	3.14	0.226	0.13	2.07	0.427	–
COC(=O)Cc1cc(O)c(C/C=C(\C)CC/C=C(\C)C(O)C(=O)C=C(C)C)cc1O (stereo not given)	> 100	72.8	93.3	40.5	55.1	44.4	31.1	42.5	55.1	43.2	–	> 100	> 100	86	30	48.3	64.8	48.6	87.8
O=C1N=c2ccccc2=C1c1c(O)[nH]c2ccccc12	21.6	96.2	69.2	–	66.7	39.2	88.3	41.1	> 100	> 100	63.5	29.9	54.6	67.4	16.3	59.3	> 100	58.9	> 100
CN1C(=O)N/C(=C\c2ccc(S(=O)(=O)NN)cc2)C1=O	> 100	> 100	> 100	–	> 100	> 100	> 100	> 100	> 100	> 100	> 100	> 100	> 100	> 100	> 100	–	> 100	> 100	> 100
CCc1nc(N)nc(N)c1-c1ccc(Cl)c(Cl)c1	> 100	> 100	> 100	> 100	–	> 100	> 100	> 100	> 100	> 100	> 100	> 100	> 100	> 100	> 100	> 100	> 100	> 100	> 100
CCCCCCCCCCCCCCCCCCNc1ccn(C2OC(COP(=O)(O)OCC3OC(n4cc(C)c(=O)[nH]c4=O)CC3O)C(O)C2O)c(=O)n1 (stereo not given)	31.9	29.9	31	31.5	31.6	33.8	30.8	39.7	33.1	36.4	32.6	39.4	35.8	29.8	25.9	36.3	30.7	–	28.5
O=c1[nH]c(-c2ccc3ccccc3c2)nc2ccccc12	> 100	> 100	> 100	–	54.4	> 100	> 100	> 100	> 100	> 100	> 100	9.73	> 100	51.4	> 100	> 100	> 100	> 100	> 100
Cc1cccc(-c2nc3ccc([N+](=O)[O-])cc3c(=O)o2)c1	> 100	> 100	> 100	> 100	> 100	> 100	> 100	> 100	> 100	> 100	> 100	> 100	> 100	–	> 100	> 100	–	> 100	> 100
c1ccc2sc(C3(N4CCCC4)CCCCCC3)cc2c1	27.7	51.9	40.6	41.2	37	31.1	27.7	27.6	30.4	26.3	27.1	31.8	> 100	29.9	25.7	30.1	31	–	34.4
O=S1(=O)OCCOS(=O)(=O)C1F	> 100	> 100	> 100	> 100	> 100	> 100	> 100	> 100	> 100	> 100	> 100	> 100	> 100	> 100	> 100	–	> 100	> 100	> 100
CC(C)(C)OC(=O)NCC(O)CNC(=O)OC(C)(C)C	> 100	> 100	> 100	> 100	> 100	> 100	> 100	> 100	> 100	> 100	> 100	> 100	> 100	> 100	> 100	> 100	> 100	–	> 100
COC(C)(C)C1=CCC(C)CC1 (stereo not given)	> 100	> 100	> 100	> 100	> 100	> 100	> 100	> 100	> 100	> 100	> 100	> 100	> 100	> 100	> 100	> 100	> 100	–	> 100
COc1ccc2nc3ccc(OC)cc3c(S(=O)CCCl)c2c1 (stereo not given)	3.34	30.3	36.1	4.59	9.2	32.1	3.39	6.24	45.2	37.3	46.7	16.4	4.66	> 59.3	16.2	> 63.7	15.3	35.3	–
